Data reported in ChEMBL document CHEMBL3046594, “Bioactive metabolites from an endophytic fungus of Aspergillus species isolated from seeds of Gloriosa superba Linn” (Med Chem Res, 2013).
In brackets after ≈: the same amount, converted by molar mass. Activity calls are given as the source filed them. The calls are words filed in the database; no cut-off is given here.

Experiments:
[1] = test system: MCF7; test: Cytotoxicity against Homo sapiens (human) MCF7 cells assessed as growth inhibition at 10 to 100 uM after 48 hr by SRB assay; type: functional, cell-based
[2] = test system: Salmonella typhi; test: Antibacterial activity against Salmonella enterica subsp. enterica serovar Typhi MTCC 1251 assessed as growth inhibition at 2 mg/mL after 24 hr by disk diffusion method; type: functional, organism-based
[3] = test system: Saccharomyces cerevisiae; test: Antifungal activity against Saccharomyces cerevisiae MTCC 172 assessed as growth inhibition at 2 mg/mL after 48 hr by disk diffusion method; type: functional
[4] = test system: Escherichia coli; test: Antibacterial activity against Escherichia coli MTCC 82 assessed as growth inhibition at 2 mg/mL after 24 hr by disk diffusion method; type: functional
[5] = test system: Candida albicans; test: Antifungal activity against Candida albicans MTCC 3018 assessed as growth inhibition at 2 mg/mL after 48 hr by disk diffusion method; type: functional
[6] = test system: Bacillus subtilis; test: Antibacterial activity against Bacillus subtilis MTCC 2451 assessed as growth inhibition at 2 mg/mL after 24 hr by disk diffusion method; type: functional
[7] = test system: Goffeauzyma gastrica; test: Antifungal activity against Cryptococcus gastricus MTCC 1715 assessed as growth inhibition at 2 mg/mL after 48 hr by disk diffusion method; type: functional
[8] = test system: Pseudomonas aeruginosa; test: Antibacterial activity against Pseudomonas aeruginosa MTCC 2642 assessed as growth inhibition at 2 mg/mL after 24 hr by disk diffusion method; type: functional; conditions: for zone of inhibition at 2000 µg/mL: MTCC 2642, 24 h, read-out: DIZ
[9] = test system: THP-1; test: Cytotoxicity against Homo sapiens (human) THP1 cells assessed as growth inhibition at 10 to 100 uM after 48 hr by SRB assay; type: functional, cell-based
[10] = test system: Staphylococcus aureus; test: Antibacterial activity against Staphylococcus aureus MTCC 96 assessed as growth inhibition at 2 mg/mL after 24 hr by disk diffusion method; type: functional; conditions: for zone of inhibition at 2000 µg/mL: MTCC 96, 24 h, read-out: DIZ
[11] = test system: OVCAR-5; test: Cytotoxicity against Homo sapiens (human) OVCAR5 cells assessed as growth inhibition at 50 uM after 48 hr by SRB assay; type: functional; conditions: OVCAR-5, 48 h, read-out: GI
[12] = test system: MCF7; test: Cytotoxicity against Homo sapiens (human) MCF7 cells assessed as growth inhibition after 48 hr by SRB assay; type: functional, cell-based; conditions: MCF7, 48 h
[13] = test system: Staphylococcus aureus; test: Antibacterial activity against Staphylococcus aureus MTCC 96 assessed as growth inhibition after 24 hr by broth dilution method; type: functional; conditions: MTCC 96, 24 h
[14] = test system: OVCAR-5; test: Cytotoxicity against Homo sapiens (human) OVCAR5 cells assessed as growth inhibition at 100 uM after 48 hr by SRB assay; type: functional; conditions: OVCAR-5, 48 h, read-out: GI
[15] = test system: OVCAR-5; test: Cytotoxicity against Homo sapiens (human) OVCAR5 cells assessed as growth inhibition at 30 uM after 48 hr by SRB assay; type: functional; conditions: OVCAR-5, 48 h, read-out: GI
[16] = test system: CV-1; test: Cytotoxicity against Chlorocebus aethiops (African green monkey) CV1 cells assessed as growth inhibition at 30 uM after 48 hr by SRB assay; type: functional; conditions: CV-1, 48 h, read-out: GI
[17] = test system: THP-1; test: Cytotoxicity against Homo sapiens (human) THP1 cells assessed as growth inhibition after 48 hr by SRB assay; type: functional, cell-based; conditions: THP-1, 48 h
[18] = test system: Candida albicans; test: Antifungal activity against Candida albicans MTCC 3018 assessed as growth inhibition after 48 hr by broth dilution method; type: functional; conditions: MTCC 3018, 48 h
[19] = test system: Escherichia coli; test: Antibacterial activity against Escherichia coli MTCC 82 assessed as growth inhibition after 24 hr by broth dilution method; type: functional; conditions: MTCC 82, 24 h
[20] = test system: MCF7; test: Cytotoxicity against Homo sapiens (human) MCF7 cells assessed as growth inhibition at 50 uM after 48 hr by SRB assay; type: functional; conditions: MCF7, 48 h, read-out: GI
[21] = test system: THP-1; test: Cytotoxicity against Homo sapiens (human) THP1 cells assessed as growth inhibition at 10 uM after 48 hr by SRB assay; type: functional; conditions: THP-1, 48 h, read-out: GI
[22] = test system: Bacillus subtilis; test: Antibacterial activity against Bacillus subtilis MTCC 2451 assessed as growth inhibition after 24 hr by broth dilution method; type: functional; conditions: MTCC 2451, 24 h
[23] = test system: MCF7; test: Cytotoxicity against Homo sapiens (human) MCF7 cells assessed as growth inhibition at 30 uM after 48 hr by SRB assay; type: functional; conditions: MCF7, 48 h, read-out: GI
[24] = test system: THP-1; test: Cytotoxicity against Homo sapiens (human) THP1 cells assessed as growth inhibition at 100 uM after 48 hr by SRB assay; type: functional; conditions: THP-1, 48 h, read-out: GI
[25] = test system: OVCAR-5; test: Cytotoxicity against Homo sapiens (human) OVCAR5 cells assessed as growth inhibition at 10 uM after 48 hr by SRB assay; type: functional; conditions: OVCAR-5, 48 h, read-out: GI
[26] = test system: THP-1; test: Cytotoxicity against Homo sapiens (human) THP1 cells assessed as growth inhibition at 30 uM after 48 hr by SRB assay; type: functional; conditions: THP-1, 48 h, read-out: GI
[27] = test system: CV-1; test: Cytotoxicity against Chlorocebus aethiops (African green monkey) CV1 cells assessed as growth inhibition at 100 uM after 48 hr by SRB assay; type: functional; conditions: CV-1, 48 h, read-out: GI
[28] = test system: CV-1; test: Cytotoxicity against Chlorocebus aethiops (African green monkey) CV1 cells assessed as growth inhibition at 50 uM after 48 hr by SRB assay; type: functional; conditions: CV-1, 48 h, read-out: GI
[29] = test system: Goffeauzyma gastrica; test: Antifungal activity against Cryptococcus gastricus MTCC 1715 assessed as growth inhibition after 48 hr by broth dilution method; type: functional; conditions: MTCC 1715, 48 h
[30] = test system: Salmonella typhi; test: Antibacterial activity against Salmonella enterica subsp. enterica serovar Typhi MTCC 1251 assessed as growth inhibition after 24 hr by broth dilution method; type: functional, organism-based
[31] = test system: Pseudomonas aeruginosa; test: Antibacterial activity against Pseudomonas aeruginosa MTCC 2642 assessed as growth inhibition after 24 hr by broth dilution method; type: functional; conditions: MTCC 2642, 24 h
[32] = test system: THP-1; test: Cytotoxicity against Homo sapiens (human) THP1 cells assessed as growth inhibition at 50 uM after 48 hr by SRB assay; type: functional; conditions: THP-1, 48 h, read-out: GI
[33] = test system: Saccharomyces cerevisiae; test: Antifungal activity against Saccharomyces cerevisiae MTCC 172 assessed as growth inhibition after 48 hr by broth dilution method; type: functional; conditions: MTCC 172, 48 h
[34] = test system: MCF7; test: Cytotoxicity against Homo sapiens (human) MCF7 cells assessed as growth inhibition at 10 uM after 48 hr by SRB assay; type: functional; conditions: MCF7, 48 h, read-out: GI
[35] = test system: A549; test: Cytotoxicity against Homo sapiens (human) A549 cells assessed as growth inhibition at 100 uM after 48 hr by SRB assay; type: functional; conditions: A549, 48 h, read-out: GI
[36] = test system: MCF7; test: Cytotoxicity against Homo sapiens (human) MCF7 cells assessed as growth inhibition at 100 uM after 48 hr by SRB assay; type: functional; conditions: MCF7, 48 h, read-out: GI
[37] = test system: Bacillus subtilis; test: Antibacterial activity against Bacillus subtilis MTCC 2451 assessed as growth inhibition at 5 ug/disk after 24 hr by disk diffusion method; type: functional; conditions: MTCC 2451, 24 h, read-out: DIZ
[38] = test system: Staphylococcus aureus; test: Antibacterial activity against Staphylococcus aureus MTCC 96 assessed as growth inhibition at 5 ug/disk after 24 hr by disk diffusion method; type: functional; conditions: MTCC 96, 24 h, read-out: DIZ
[39] = test system: Pseudomonas aeruginosa; test: Antibacterial activity against Pseudomonas aeruginosa MTCC 2642 assessed as growth inhibition at 5 ug/disk after 24 hr by disk diffusion method; type: functional; conditions: MTCC 2642, 24 h, read-out: DIZ
[40] = test system: Escherichia coli; test: Antibacterial activity against Escherichia coli MTCC 82 assessed as growth inhibition at 5 ug/disk after 24 hr by disk diffusion method; type: functional; conditions: MTCC 82, 24 h, read-out: DIZ
[41] = test system: Salmonella typhi; test: Antibacterial activity against Salmonella enterica subsp. enterica serovar Typhi MTCC 1251 assessed as growth inhibition at 5 ug/disk after 24 hr by disk diffusion method; type: functional; conditions: MTCC 1251, 24 h, read-out: DIZ

COC(=O)c1ccc(O)cc1C(=O)OC
growth inhibition (GI) [1]: Active
growth inhibition (GI) [2]: inactive
growth inhibition (GI) [3]: inactive
growth inhibition (GI) [4]: inactive
growth inhibition (GI) [5]: inactive
growth inhibition (GI) [6]: inactive
growth inhibition (GI) [7]: inactive
growth inhibition (GI) [8]: inactive
growth inhibition (GI) [9]: Active
growth inhibition (GI) [10]: inactive

CC(=O)NC12C=CC(=O)C=CC1c1c(cc(O)c(O)c1O)CC2C (configuration not stated)
inhibition of growth at 50 µM [11]: 33%
growth inhibition (GI) [2]: inactive
IC50 [12]: 50 µg/mL (≈ 152 µM)
MIC [13]: 25 µg/mL (≈ 75.9 µM)
inhibition of growth at 100 µM [14]: 43%
inhibition of growth at 30 µM [15]: 17%
zone of inhibition at 2000 µg/mL ([3]; MTCC 172, 48 h, read-out: DIZ): 16.9 mm
inhibition of growth at 30 µM [16]: 13%
zone of inhibition at 2000 µg/mL ([4]; MTCC 82, 24 h, read-out: DIZ): 13.3 mm
IC50 [17]: 30 µg/mL (≈ 91.1 µM)
MIC [18]: 12.5 µg/mL (≈ 38 µM)
MIC [19]: 100 µg/mL (≈ 304 µM)
zone of inhibition at 2000 µg/mL ([5]; MTCC 3018, 48 h, read-out: DIZ): 18.9 mm
inhibition of growth at 50 µM [20]: 52%
inhibition of growth at 10 µM [21]: 48%
MIC [22]: 50 µg/mL (≈ 152 µM)
inhibition of growth at 30 µM [23]: 33%
inhibition of growth at 100 µM [24]: 80%
inhibition of growth at 10 µM [25]: 9%
inhibition of growth at 30 µM [26]: 55%
inhibition of growth at 100 µM [27]: 35%
zone of inhibition at 2000 µg/mL ([6]; MTCC 2451, 24 h, read-out: DIZ): 17.5 mm
inhibition of growth at 50 µM [28]: 19%
MIC [29]: 50 µg/mL (≈ 152 µM)
zone of inhibition at 2000 µg/mL ([7]; MTCC 1715, 48 h, read-out: DIZ): 15.3 mm
MIC [30]: inactive
MIC [31]: > 100 µg/mL
inhibition of growth at 50 µM [32]: 67%
zone of inhibition at 2000 µg/mL [8]: 11.9 mm
MIC [33]: 25 µg/mL (≈ 75.9 µM)
zone of inhibition at 2000 µg/mL [10]: 15.7 mm
inhibition of growth at 10 µM [34]: 26%
inhibition of growth at 100 µM [35]: 23%
inhibition of growth at 100 µM [36]: 70%

CC1(C)S[C@@H]2[C@H](NC(=O)[C@H](N)c3ccc(O)cc3)C(=O)N2[C@H]1C(=O)O [AMOXICILLIN]
zone of inhibition at 5 µg/disc [37]: 20 mm
zone of inhibition at 5 µg/disc [38]: 21 mm
zone of inhibition at 5 µg/disc [39]: 19 mm
zone of inhibition at 5 µg/disc [40]: 20 mm
zone of inhibition at 5 µg/disc [41]: 18 mm

CC(C)[C@@H](C)/C=C/[C@@H](C)[C@H]1CC[C@H]2C3=CC=C4C[C@@H](O)CC[C@]4(C)[C@H]3CC[C@]12C [ERGOSTEROL]
growth inhibition (GI) [2]: inactive
growth inhibition (GI) [3]: inactive
growth inhibition (GI) [4]: inactive
growth inhibition (GI) [5]: inactive
growth inhibition (GI) [6]: inactive
growth inhibition (GI) [7]: inactive
zone of inhibition at 2000 µg/mL [8]: 8.7 mm
zone of inhibition at 2000 µg/mL [10]: 11.2 mm
